Results on nine compounds are retold here after US20200369626A1 (Washington University, priority 2019, published 2020).

Each structure is given as a SMILES string. Read-outs that look alike come from different tables or passages of the source.

For data set [1], the target named is T1, S1PR2 (Homo sapiens, UniProt O95136).
T1 construct: purchased
Put plainly: competitive [^32P]S1P binding assay on cell membranes, S1PR2.
Description: The test compounds were dissolved in DMSO and diluted into test samples with increasing concentrations with assay buffer. Commercial cell membranes expressing recombinant human S1PR were diluted with assay buffer to make a 20-40 μg/mL of solution. […] The plate was incubated for 60 min at room temperature with shaking and terminated by collecting the membranes onto 96-well glass fiber (GF/B) filtration plates (Millipore, Billerica, Mass.). Each filter was washed with 200 μL of assay buffer for a total of five washes. […] The IC50 values were fitted from GraphPad Prism 6 using one site Nonlinear Regression.

Data set [2] addresses T2, S1PR1 (Homo sapiens, UniProt P21453).
T2 construct: purchased
The data set is described as follows: competitive [^32P]S1P binding assay on cell membranes, S1PR1. The procedure: (§1) The test compounds were dissolved in DMSO and diluted into test samples with increasing concentrations with assay buffer. Commercial cell membranes expressing recombinant human S1PR were diluted with assay buffer to make a 20-40 μg/mL of solution. […] The plate was incubated for 60 min at room temperature with shaking and terminated by collecting the membranes onto 96-well glass fiber (GF/B) filtration plates (Millipore, Billerica, Mass.). Each filter was washed with 200 μL of assay buffer for a total of five washes. The filter bound radionuclide was measured by a Beckman LS 3801 scintillation counter using Cherenkov counting. The IC50 values were fitted from GraphPad Prism 6 using one site Nonlinear Regression.

In data set [3] the target is T3, S1PR3 (Homo sapiens, UniProt Q99500).
T3 construct: purchased
T3 sequence (Q99500 whole entry): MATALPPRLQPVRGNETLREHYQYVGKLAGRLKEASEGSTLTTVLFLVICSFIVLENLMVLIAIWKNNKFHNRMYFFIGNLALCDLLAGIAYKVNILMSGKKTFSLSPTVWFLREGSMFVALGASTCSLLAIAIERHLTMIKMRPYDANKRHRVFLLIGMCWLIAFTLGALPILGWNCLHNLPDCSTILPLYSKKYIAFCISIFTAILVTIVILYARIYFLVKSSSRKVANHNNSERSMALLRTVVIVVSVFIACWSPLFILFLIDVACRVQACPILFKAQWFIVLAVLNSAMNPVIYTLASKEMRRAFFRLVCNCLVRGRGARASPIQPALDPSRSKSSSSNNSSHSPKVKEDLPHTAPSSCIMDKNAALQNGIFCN
Put plainly: competitive [^32P]S1P binding assay on cell membranes, S1PR3. As to the method:
as §1

For data set [4], the target named is T4, S1PR4 (Homo sapiens, UniProt O95977).
T4 construct: purchased
T4 sequence (O95977 1-384): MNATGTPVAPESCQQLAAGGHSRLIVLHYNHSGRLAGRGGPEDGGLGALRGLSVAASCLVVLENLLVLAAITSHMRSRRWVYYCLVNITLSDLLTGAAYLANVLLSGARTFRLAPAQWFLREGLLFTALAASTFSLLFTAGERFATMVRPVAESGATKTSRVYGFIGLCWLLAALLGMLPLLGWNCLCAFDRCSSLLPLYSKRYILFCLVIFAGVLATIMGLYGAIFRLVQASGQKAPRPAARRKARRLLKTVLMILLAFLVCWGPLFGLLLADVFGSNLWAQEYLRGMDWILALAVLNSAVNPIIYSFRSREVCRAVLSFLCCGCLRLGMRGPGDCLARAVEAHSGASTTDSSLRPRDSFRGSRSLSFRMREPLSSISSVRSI
Put plainly: competitive [^32P]S1P binding assay on cell membranes, S1PR4. The procedure: as §1

For data set [5], the target named is T5, S1PR5 (Homo sapiens, UniProt Q9H228).
T5 construct: purchased
T5 sequence (Q9H228 whole entry): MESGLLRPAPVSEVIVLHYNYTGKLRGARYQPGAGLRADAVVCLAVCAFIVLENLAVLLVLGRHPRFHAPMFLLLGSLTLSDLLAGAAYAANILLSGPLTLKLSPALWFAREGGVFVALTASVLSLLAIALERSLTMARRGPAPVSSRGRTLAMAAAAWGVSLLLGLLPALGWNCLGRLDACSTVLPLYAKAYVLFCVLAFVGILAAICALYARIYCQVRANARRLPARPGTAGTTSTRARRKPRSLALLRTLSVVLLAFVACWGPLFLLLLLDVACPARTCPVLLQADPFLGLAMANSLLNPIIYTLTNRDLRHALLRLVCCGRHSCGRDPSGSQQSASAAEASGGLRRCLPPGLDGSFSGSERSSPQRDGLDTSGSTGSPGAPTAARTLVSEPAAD
The data set is described as follows: competitive [^32P]S1P binding assay on cell membranes, S1PR5.

Data set [6] is described as follows: biodistribution study of [^11C]2c in EAE and control mice. The note with it: for tissue uptake: female, SJL, mouse, brain, other: injection. It counts as in vivo, female SJL mice. The procedure: A biodistribution study was conducted in female SJL EAE mice and control mice (at 9 weeks, n=4 for each group) to determine the tissue accumulation of the radiotracer post-injection of the dose.

For data set [7], the system named is Experimental autoimmune encephalomyelitis (EAE). The data set is described as follows: EAE clinical score in immunized mice, osmotic pump treatment. It counts as in vivo, female SJL/J mice. The note with it: from day 9 postimmunization.
[8] abbreviates: [^32P]S1P competition, Table 2, read-out: IC50 S1PR2.
The mark [9] stands for this setting: [^32P]S1P competition, read-out: IC50 value, S1PR2 binding.

T1 sequence (O95136 whole entry): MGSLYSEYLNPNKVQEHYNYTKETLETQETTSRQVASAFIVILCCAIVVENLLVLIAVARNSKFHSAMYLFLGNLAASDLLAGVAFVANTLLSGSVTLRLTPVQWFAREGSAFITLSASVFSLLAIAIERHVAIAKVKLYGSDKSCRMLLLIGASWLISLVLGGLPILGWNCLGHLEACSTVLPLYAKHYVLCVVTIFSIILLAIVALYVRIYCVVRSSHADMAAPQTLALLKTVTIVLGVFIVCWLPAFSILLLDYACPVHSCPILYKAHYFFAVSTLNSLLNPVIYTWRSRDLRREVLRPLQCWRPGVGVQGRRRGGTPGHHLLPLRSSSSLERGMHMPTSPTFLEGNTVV
T2 sequence (P21453 whole entry): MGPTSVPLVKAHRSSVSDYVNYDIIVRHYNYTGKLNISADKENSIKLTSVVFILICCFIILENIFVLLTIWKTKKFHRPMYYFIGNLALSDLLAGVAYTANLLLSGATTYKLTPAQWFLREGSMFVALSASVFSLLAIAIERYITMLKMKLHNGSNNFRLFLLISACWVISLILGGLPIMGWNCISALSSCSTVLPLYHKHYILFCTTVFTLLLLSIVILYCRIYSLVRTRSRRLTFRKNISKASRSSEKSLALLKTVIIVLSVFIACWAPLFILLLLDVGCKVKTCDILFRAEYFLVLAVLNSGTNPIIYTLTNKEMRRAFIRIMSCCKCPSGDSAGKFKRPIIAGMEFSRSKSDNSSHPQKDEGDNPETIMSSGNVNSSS

Regarding `CCC(CC)CC1(O)CCN(C(=O)Nc2cc(Oc3ccc(F)cc3)cc(Oc3ccc(C(=O)NCCF)cc3)c2)CC1` [Compound 28d, 4-(2-Ethylbutyl)-N-(3-(4-((2-fluoroethyl)carbamoyl)phenoxy)-5-(4-fluorophenoxy)phenyl)-4-hydroxypiperidine-1-carboxamide], the melting point (in general, the temperature of the solid-liquid transition) was 79 to 82 °C. The half-maximal inhibitory concentration (IC50) (in general, the midpoint of a concentration-inhibition curve) in data set [1] (setting [8]) amounted to 0.0667 ± 0.0078 µM. The compound also gave an IC50 in data set [2] of more than 1 µM. Moreover, the concentration for half-maximal inhibition (IC50) in data set [3] is more than 1 µM. Also, in data set [4], the IC50 is more than 1 µM. The half-maximal inhibitory concentration (IC50) in data set [5] is more than 1 µM.
With `CCC(CC)CC1(O)CCN(C(=O)Nc2cc(Oc3ccc(F)cc3)cc(Oc3ccc4c(c3)CCN(C)C4=O)c2)CC1` [Compound 28b, 4-(2-Ethylbutyl)-N-(3-(4-fluorophenoxy)-5-((2-methyl-1-oxo-1,2,3,4-tetrahydroisoquinolin-6-yl)oxy)phenyl)-4-hydroxypiperidine-1-carboxamide], the melting point is 80 to 82 °C. This compound displayed an IC50 in data set [2] of more than 1 µM. Also, the half-maximal inhibitory concentration (IC50) in data set [3] was more than 1 µM. The same compound registered a concentration for half-maximal inhibition (IC50) in data set [4] of more than 1 µM. Further, the IC50 in data set [5] was more than 1 µM.
As to `CCC(CC)CC1(O)CCN(C(=O)Nc2cc(Oc3ccc(F)cc3)cc(Sc3ccc(S(C)(=O)=O)cc3)c2)CC1` [Compound 28e, 4-(2-Ethylbutyl)-N-(3-(4-fluorophenoxy)-5-((4-(methylsulfonyl)phenyl)thio)phenyl)-4-hydroxypiperidine-1-carboxamide], the melting point is 78 to 80 °C. In addition, in data set [1] (setting [9]), the half-maximal inhibitory concentration (IC50) came to 0.0146 µM. This compound also had an IC50 in data set [2] of more than 1 µM. Moreover, the IC50 in data set [3] was more than 1 µM. Moreover, in data set [4], the IC50 was more than 1 µM. Besides, in data set [5], the IC50 is more than 1 µM.
In turn, `CC(C)CC1(O)CCN(C(=O)Nc2cc(Oc3ccc(F)cc3)cc(Sc3ccc(S(C)(=O)=O)cc3)c2)CC1` [Compound 28g, N-(3-(4-Fluorophenoxy)-5-((4-(methylsulfonyl)phenyl)-thio)phenyl)-4-hydroxy-4-isobutylpiperidine-1-carboxamide] yielded a melting point of 79 to 81 °C. The concentration for half-maximal inhibition (IC50) in data set [1] (setting [8]) came to 0.0385 ± 0.0063 µM. In data set [2], this compound had an IC50 of more than 1 µM. Besides, the IC50 in data set [3] is more than 1 µM. Also, the IC50 in data set [4] is more than 1 µM. Also, the IC50 in data set [5] is more than 1 µM.
In turn, `CCC(CC)CC1(O)CCN(C(=O)Nc2cc(Oc3ccc(F)cc3)cc(Oc3ccc4c(c3)CCNC4=O)c2)CC1` [Compound 28c, 4-(2-Ethylbutyl)-N-(3-(4-fluorophenoxy)-5-((1-oxo-1,2,3,4-tetrahydroisoquinolin-6-yl)oxy)phenyl)-4-hydroxypiperidine-1-carboxamide] registered a melting point of 81 to 83 °C. In addition, in data set [2], the IC50 was more than 1 µM. The same compound gave an IC50 in data set [3] of more than 1 µM. In data set [4], this compound showed a half-inhibitory concentration (IC50) of more than 1 µM. Also, in data set [5], the IC50 was more than 1 µM.
Turning to `COc1ccc(NC(=O)Cn2c(=O)c3ccccc3n(CC(=O)Nc3cc(Cl)c(OC)cc3OC)c2=O)cc1` [[^11C]2c], the “uptake in brain, blood, heart, lung, and pancreas” value in data set [6] (EAE mice versus control) is “increased uptake”. Also, the figures for the tissue uptake in data set [6] (EAE mice) and in data set [6] (control mice) were 0.699 %ID/g and 0.452 %ID/g, respectively.
On to `COc1ccc(NC(=O)Cn2c(=O)c3ccccc3n(CC(=O)Nc3cc(Cl)c(OC)cc3OC)c2=O)cc1` [Compound 2c], for which the IC50 in data set [1] (setting [9]) is 0.0057 ± 0.0005 µM. Also, the “EAE disease course (clinical score)” value in data set [7] (1 mg/kg, p<0.0002) was “significant improvement of EAE disease course”; in data set [7] (5 mg/kg, p<0.0001), “significant improvement of EAE disease course”.
Turning to `COc1cc(OC)c(NC(=O)Cn2c(=O)n(CC(=O)Nc3ccccc3OC)c(=O)c3ccccc32)cc1Cl` [TZ59-134, N-(5-Chloro-2,4-dimethoxyphenyl)-2-(3-(2-((2-methoxyphenyl)amino)-2-oxoethyl)-2,4-dioxo-3,4-dihydroquinazolin-1(2H)-yl)acetamide], the half-inhibitory concentration (IC50) in data set [1] (Table 5, read-out: IC50 S1PR2) was 0.0063 ± 0.0009 µM; in data set [2] (Table 5) it was more than 1 µM; in data set [3] (Table 5) it was more than 1 µM; in data set [4] (Table 5), more than 1 µM; in data set [5] (Table 5) it was more than 1 µM.
On to `Cc1nn(C)c2nc(NNC(=O)Nc3cc(Cl)nc(Cl)c3)cc(C(C)C)c12` [JTE-013, reference compound], for which the IC50 was more than 1 µM in data set [2] ([^32P]S1P competition, Table 2); more than 1 µM in data set [3] ([^32P]S1P competition, Table 2); more than 1 µM in data set [4] ([^32P]S1P competition, Table 2); more than 1 µM in data set [5] ([^32P]S1P competition, Table 2).
